The subject of one data set is NIH 3T3 fibroblasts. The experiment in a line: Long-term (3-day) cell proliferation. It is filed as cell-based. The note with it: 0.22 M extracellular trehalose, 40 min incubation (0.5 mg/ml nanocapsules where present). How it is done:
For long-term cell proliferation studies, cells were seeded in 33 mm Petri dishes at a relatively low density of 1×10^5 cells/dish in 1 ml medium. At 24 h, the cells were exposed to nanocapsules in the same way as that described above for immediate cell viability studies. After cold shock, the cells were further cultured for 3 days to monitor their proliferation (long-term toxicity). This was done by taking at least 10 representative images of the samples every day including the day (taken as day 0) when the cells were exposed to nanocapsules. The total number of cells in each image were counted automatically using NIH ImageJ. […] The collagen production of cells exposed to 0 M trehalose and 0 mg/ml nanocapsules (control), 0.22 M extracellular trehalose and 0 mg/ml nanocapsules (trehalose without NE), and 0.22 M extracellular trehalose and 0.5 mg/ml extracellular nanocapsules (nanoencapsulated with trehalose) was quantified using the Sircol™ Assay kit (Biocolor, Belfast, N. Ireland). […] The absorbance at 540 nm wavelength of the dye was then measured using a BioTek Synergy 2 microplate reader (Winooski, Vt.). Collagen concentration in the collected medium was quantified by comparing its absorbance subtracted with the absorbance of the blank sample with that of the standards.

Data set [1] relates to 3T3 fibroblasts. The experiment in a line: Collagen production, Sircol assay. It is filed as cell-based. The note with it: 0.22 M extracellular trehalose, 40 min incubation (0.5 mg/ml nanocapsules where present). How it is done:
The immediate cell viability, proliferation, and collagen production of 3T3 cells exposed to 0.22 M extracellular trehalose and 0.5 mg/ml nanocapsules (loaded with trehalose) (As will be shown later in Results and Discussion that the intracellular trehalose is ˜0.3 M under this loading condition) were further studied to test the effectiveness of the nanocapsule based approach for intracellular delivery of trehalose. Immediate cell viability and proliferation of the 3T3 cells after loading with trehalose were studied in the same way as that described for 3T3 cells loaded with empty nanocapsules in section 2.6. The collagen production of cells exposed to 0 M trehalose and 0 mg/ml nanocapsules (control), 0.22 M extracellular trehalose and 0 mg/ml nanocapsules (trehalose without NE), and 0.22 M extracellular trehalose and 0.5 mg/ml extracellular nanocapsules (nanoencapsulated with trehalose) was quantified using the Sircol™ Assay kit (Biocolor, Belfast, N. Ireland). To do this, the cells treated under the three conditions were further cultured for 3 days. […] The absorbance at 540 nm wavelength of the dye was then measured using a BioTek Synergy 2 microplate reader (Winooski, Vt.). Collagen concentration in the collected medium was quantified by comparing its absorbance subtracted with the absorbance of the blank sample with that of the standards.

Data set [2] in a line: Nanoencapsulation and controlled release of trehalose (dialysis, trehalose assay kit). It is filed as physicochemical. How it is done: The resultant freeze-dried mixture of extra-capsular trehalose and trehalose-loaded nanocapsules was either used immediately or stored at −20° C. for future use.
To determine whether trehalose can be withheld in the nanocapsule at 37° C. for controlled release, the freeze-dried mixture of trehalose and trehalose-loaded nanocapsules was preheated to 37° C. and dissolved in 2 ml warm water at 37° C. in a 15 ml centrifuge tube. The final overall trehalose (i.e., trehalose both inside and outside the nanocapsules) concentration in the solution was 15% (w/v) and the corresponding nanocapsule (excluding the encapsulated trehalose) concentration was 10 mg/ml. Therefore, the total amount of trehalose and nanocapsules (excluding the encapsulated trehalose) in the 2 ml solution was 0.3 and 0.02 g, respectively. The solution in the centrifuge tube was then transferred either after cooling at 22° C. (i.e., cold shocking) for 15 min or immediately into a Spectra/Por dialysis bag (MWCO, 50 kDa) and placed in a beaker containing 1 L of deionized water kept warm at 37° C. with constant stirring using a hotplate/stirrer for 5 hr. It is expected that the 15 min cooling at 22° C. followed by heating at 37° C. in the beaker should result in a quick release of nanoencapsulated trehalose as a result of the more than 15 times of volume expansion and contraction in response to the temperature variation. Control experiments were performed similarly except that 2 ml of 15% (w/v) pure trehalose solution (i.e., in the absence of nanocapsules) was used in the dialysis tube. […] Trehalose concentration in the 0.5 ml samples was determined using a trehalose assay kit (Megazyme Co., Wicklow, Ireland) by following the manufacturer's instructions. […] The absorbance at 340 nm of NADPH was then measured using a Shimazu (Columbia, Md.) UV-2101PC spectrophotometer to determine the amount of trehalose in the original sample.

For data set [3], the system named is 3T3 fibroblasts. The experiment in a line: Nanocapsule assisted intracellular delivery of trehalose. It is filed as cell-based. The following applies: extracellular trehalose 0.165 M (nanocapsule 0.375 mg/ml where present), 40 min at 37° C. How it is done: The procedures performed for cellular uptake of the trehalose loaded nanocapsules was the same as that described in section 2.6 for the uptake of empty nanocapsules. […] The cells were then detached/lysed in deionized water with the aid of a cell scraper. The cells were further lysed using three cycles of freezing and thawing in liquid nitrogen and 37° C. water bath, respectively. The lysed cell suspension was homogenized for 10 min by sonication using a Branson ultrasonic cleaner (Danbury, Conn.) followed by a brief vortex-mixing. After centrifuging at 10,000 g for 10 min, the supernatant of each sample was divided into two aliquots. One aliquot was used to determine trehalose concentration in the sample using the trehalose assay kit (Megazyme Co. Wicklow, Ireland) as described in the previous section. […] The other aliquot was used to determine cell density in the sample based on its DNA content measured using a method described in Dunn et. al, Long-term in vitro function of adult hepatocytes in a collagen sandwich configuration, Biotechnol Prog 1991 May-Jun;7(3):237-245. […] With the trehalose concentration and cell density in the sample being measured, the total amount of intracellular trehalose and the total number of cells (and thus the total osmotically active cell volume) can be calculated. Therefore, the intracellular trehalose concentration can be determined.

With `OC[C@H]1O[C@H](O[C@H]2O[C@H](CO)[C@@H](O)[C@H](O)[C@H]2O)[C@H](O)[C@@H](O)[C@@H]1O` [Trehalose w/o NE, α,α-trehalose], the “3 day cell proliferation vs control” value in the data set with NIH 3T3 fibroblasts is recorded as “No significant differences”. The “3 day collagen production vs control” value in the data set with 3T3 fibroblasts [1] is “No significant differences”. Besides, the “time for trehalose release from the dialysis bag to reach equilibrium” value in data set [2] (2 ml of 15% (w/v) into 1 L deionized water at 37° C.) is recorded as “approximately 2 hours”. In addition, the “trehalose released from the dialysis tube” value in data set [2] (after one hour, 37° C.) is recorded as “more than 80%”. Besides, the “trehalose concentration in the 1 L solution outside the dialysis tube” value in data set [2] (at 2 hr, 37° C., no cold shock) was 0.3 g/L. For the same compound, the intracellular trehalose concentration with 3T3 fibroblasts [3] is on record as 0.02 M.

The values are drawn from patent US8318207B2, “Encapsulation and controlled release of small molecules for intracellular delivery using thermally responsive nanocapsules” (University of South Carolina, priority 2009, dated 2012).
